Experimental data reported in US11447825B2, “In-vitro methods for the detection of autoimmune diseases or conditions” (Universitätsmedizin der Johannes Gutenberg-Universität Mainz, priority 2015, dated 2022).

Key:
Type in all cases: cell-based, human
T-cells = assay: Toxicity of PPARα modifiers in cell culture; conditions: incubation with PPARα antagonist (Supplemental FIG. 4)
Procedure: Human cells were cultured in X-VIVO-15 (Lonza, Belgium). Flow cytometric analysis was performed using the following antibodies: anti-human CD3 (SK7), anti-human CD3 (UCHT1), anti-human CD4 (RPA-T4), anti-human CD8 (SK1), anti-human CD14 (M5E2), anti-human CD19 (HIB19), anti-human CD25 (M-A251), all from BD Pharmingen, anti-human CD8 (BW 135/80, Miltenyi Biotec), Fluorokine® biotinylated human Interleukin-6 (R&D systems). Cell viability during flow cytometric analysis was determined using 7-AAD and eFluor506 (eBioscience). For blockade experiments, cultures were supplemented with neutralizing antibody against anti-IL-6R (Tocilizumab), PKB/c-Akt VIII inhibitor (Calbiochem), PPARA antagonists (GW6471, Tocris, 0.05 μM) or PPARA agonists (GW7646, Tocris, 0.01 μM) together with IL-6 (100 ng/ml or 1000 IU/ml; CellGenix).

[1] = test system: T-cells cocultured with Treg; assay: Suppressor assay: T-cell proliferation with or without Treg (3H-Tdr incorporation); conditions: for Treg-mediated suppression in cocultures in presence of exogenous IL-6: HC T-cells with Treg plus IL-6 plus test substance, anti-IL-6R mAb 30 ng/ml, Akt VIII inhibitor 0.1 μM, PPARA agonist 0.01 μM
Procedure: Treg-depleted PBMC (10^5 cells) were stimulated with 0.5 μg/ml anti-CD3 mAb (OKT-3) and cultured in presence or absence of different Treg ratios (Treg:T-cells 1:1 to 1:64) (Jonuleit et al., 2001; Kubach et al., 2007). T-cell proliferation was determined on day three of cultures by addition of 37 kBq/well ^3H-Tdr for additional 16 h. Some experiments were performed by supplementing cultures with neutralizing mAb against anti-IL-6R (30 ng/ml; Tocilizumab; Roacterma; Roche) or supplemented with IL-6 (100 ng/ml or 1000 IU/ml; CellGenix). PKB/c-Akt VIII inhibitor (0.1 μM; Calbiochem, Isozyme-selective, Akt1/2) was added into individual assays. Some experiments were performed by supplementing cultures with PPARA antagonists (GW6471, Tocris, 0.05 μM) or PPARA agonists (GW7646, Tocris, 0.01 μM) together with IL-6 (100 ng/ml or 1000 IU/ml; CellGenix). For flow cytometric analysis of proliferating T-cells Treg-depleted PBMC were washed in warm PBS and stained with 1 μM CFSE and afterwards cocultured with or without Treg (ratio 1:1) and stimulated with 0.5 μg/ml anti-CD3 mAb. Proliferation was assessed on day 3 after excluding dead cells. Analysis was performed on LSRII (BD Bioscience) and evaluated using DIVA software (BD Bioscience).

PKB/c-Akt = PKB/c-Akt phosphorylation in CD3+ T-cells by flow cytometry; conditions: HC T-cells; for phosphorylation of PKB/c-Akt in presence of IL-6: 24 h with IL-6 plus IL-6R mAb or VIII inhibitor (0.01, 0.1 and 1 μM)
Procedure: For surface staining of PBMC or T-cells indicated antibodies were incubated for 30 min at 4° C. and washed twice with PBS. Stained cells were measured on LSRII with FACS Diva Software (BD Bioscience). To detect phosphorylated PKB/c-Akt (anti-Akt, pS473, BD Phosflow), cells were fixed at 37° C. (BD Cytofix™ Buffer); permeabilized (BD™ Phosflow Perm Buffer) washed twice with BD Pharmingen™ stain buffer and stained for the indicated antibody according to manufacturer's instructions.
A) Upper panel: CD3^+ T-cells and Treg were coculture in presence (grey) or absence (black) of IL-6 and stimulated with anti-CD3 mAb. […] One of four independent experiments is shown. Lower panel: PBMC from HC were cultured for 24 h with (grey) or without (black) IL-6, washed extensively and CD4^+ or CD8^+ T-cells were isolated. Cells were left unstimulated or were activated with plate-bound anti-CD3 and anti-CD28 mAb for four hours. Shown are expression levels of (PPARGC1A) PGC-1α mRNA in activated CD4^+ and CD8^+ T-cells (TC) normalized to resting T-cells. β-Actin used as housekeeping gene. Bars represent mean of four experiments, p-values relative to TC without IL-6. B) PKB/c-Akt phosphorylation was analyzed by flow cytometry within CD3^+ T-cells after 24 h of culture with (black) or without IL-6 (grey). C) Flow cytometric determination of PKB/c-Akt phosphorylation. […] Shown is the mean fluorescence intensity (MFI) of pPKB/c-Akt in T-cells, one representative result of five independent experiments. […] PKB/c-Akt phosphorylation was analyzed by flow cytometry within CD3^+ T-cells. […]
A) PBMC from HC were cultured for 24 h with media (black), PPARα antagonist (blue) or PPARα agonist (green), washed extensively and expression level of PGC-1α mRNA in activated T-cells was detected by qRT-PCR. β-Actin used as housekeeping gene. […] B) PKB/c-Akt phosphorylation was analysed by flow cytometry within CD3^+ T-cells after 24 h of culture with media (black), PPARα agonist (green) or PPARα antagonist (blue). […]

PGC-1α = PGC-1α (PPARGC1A) mRNA expression in activated T-cells by qRT-PCR; conditions: HC PBMC 24 h with IL-6, then anti-CD3/anti-CD28 for four hours; normalized to resting T-cells
Procedure: RNA was extracted from 2×10^6 cells using Rneasy Kit (Qiagen) according to manufacturer's instructions. cDNA was generated by reverse transcription with Sensiscript RT Kit (Qiagen) and amplified by quantitative RT-PCR (qRT-PCR, 7300 Real Time PCR System (Applied Biosystem) and the QuantiFAST PCR Kit (Qiagen). Relative IL-6 mRNA (QuantiTect Primer, Qiagen) expression levels were normalized to EF1-α or β-Actin. Relative PPARGC1α, IRF8, FGF19, HNF4A, Hdac, RORA mRNA was analyzed with QuantiTect Primer Assay (Qiagen) according to manufacturer's instructions and expression levels were normalized to β-ACT.
A) Upper panel: CD3^+ T-cells and Treg were coculture in presence (grey) or absence (black) of IL-6 and stimulated with anti-CD3 mAb. […] One of four independent experiments is shown. […] B) PKB/c-Akt phosphorylation was analyzed by flow cytometry within CD3^+ T-cells after 24 h of culture with (black) or without IL-6 (grey). […] Shown is the mean fluorescence intensity (MFI) of pPKB/c-Akt in T-cells, one representative result of five independent experiments. […] PKB/c-Akt phosphorylation was analyzed by flow cytometry within CD3^+ T-cells. […]
A) PBMC from HC were cultured for 24 h with media (black), PPARα antagonist (blue) or PPARα agonist (green), washed extensively and expression level of PGC-1α mRNA in activated T-cells was detected by qRT-PCR. β-Actin used as housekeeping gene. […]

CCC(=O)NC[C@H](Cc1ccc(OCCc2nc(-c3ccccc3)oc2C)cc1)N/C(C)=C\C(=O)c1ccc(C(F)(F)F)cc1 [PPARα antagonist]
toxicity (T-cells): without inducing toxicity | Treg resistance in cocultures without IL-6 ([1]; T-cells and Treg, anti-CD3 mAb, PPARA antagonist 0.05 μM alone): Treg resistance could be induced | T-cell proliferation in absence of Treg ([1]; no Treg, agonist 0.01 μM, antagonist 0.05 μM): did not influence the T-cell proliferation significantly

O=c1[nH]c2ccccc2n1C1CCN(Cc2ccc(-c3nc4cc5[nH]cnc5cc4nc3-c3ccccc3)cc2)CC1 [c-Akt inhibitor VIII]
Treg-mediated suppression in cocultures in presence of exogenous IL-6 [1]: restored IL-6-induced Treg resistance | phosphorylation of PKB/c-Akt in presence of IL-6 (PKB/c-Akt): inhibited phosphorylation of PKB/c-Akt

IL-6: exogenous cytokine IL-6 (100 ng/ml or 1000 IU/ml; CellGenix)
control of T-cells by Treg in suppressor cocultures ([1]; Treg-sensitive T-cells from HC with Treg, anti-CD3 mAb, IL-6 supplemented (100 ng/ml or 1000 IU/ml), day three): prevented efficient control of T-cells by Treg | phosphorylation of PKB/c-Akt in T-cells (PKB/c-Akt; 24 h culture with IL-6): enhanced phosphorylation of PKB/c-Akt | PGC-1α expression in activated CD4+ T-cells (PGC-1α): down regulated PGC-1α expression | PGC-1α expression in activated CD8+ T-cells (PGC-1α): prevented the upregulation of PGC-1α

anti-IL-6R mAb: neutralizing mAb against anti-IL-6R (Tocilizumab; Roacterma; Roche)
Treg-mediated suppression in cocultures in presence of exogenous IL-6 [1]: restored IL-6-induced Treg resistance | phosphorylation of PKB/c-Akt in presence of IL-6 (PKB/c-Akt): inhibited phosphorylation of PKB/c-Akt
